Source: patent US10828298B2, “Pharmaceutical composition containing 2-{4-[N-(5,6-diphenylpyrazin-2-yl)-N-isopropylamino]butyloxy]-N-(methylsulfonyl)acetamide” (NIPPON SHINYAKU CO., LTD., priority 2015, dated 2020)

Legend:
[1] = Stability of Compound (I) itself to temperature and humidity (formulation study); assay type: physicochemical
[2] = molecular target: prostaglandin I2 (PGI2) receptor (Homo sapiens, UniProt P43119); details: known, PTL 1; cited from earlier work
Sequence of prostaglandin I2 (PGI2) receptor (P43119 whole entry): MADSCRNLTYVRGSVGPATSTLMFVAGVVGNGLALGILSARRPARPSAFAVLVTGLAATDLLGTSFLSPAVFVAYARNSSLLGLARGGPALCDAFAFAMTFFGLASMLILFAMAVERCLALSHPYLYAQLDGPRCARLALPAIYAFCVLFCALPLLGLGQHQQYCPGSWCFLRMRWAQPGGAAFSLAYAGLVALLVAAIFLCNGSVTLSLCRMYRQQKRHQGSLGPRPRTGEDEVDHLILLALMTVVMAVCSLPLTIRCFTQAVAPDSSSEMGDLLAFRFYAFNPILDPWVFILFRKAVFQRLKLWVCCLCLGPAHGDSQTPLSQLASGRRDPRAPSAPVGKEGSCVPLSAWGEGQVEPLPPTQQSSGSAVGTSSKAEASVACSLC

## CC(C)N(CCCCOCC(=O)NS(C)(=O)=O)c1cnc(-c2ccccc2)c(-c2ccccc2)n1 [Compound (I), 2-{4-[N-(5,6-diphenylpyrazin-2-yl)-N-isopropylamino]butyloxy}-N-(methylsulfonyl)acetamide]
[1]
  Stability of Compound (I) itself, in words: stable to temperature and humidity
[2]
  PGI2 receptor agonistic activity, in words: excellent
